Data: patent publication US20250313528A1, “NOVEL COMPOUND AND PHARMACEUTICAL COMPOSITION FOR PREVENTING OR TREATING PULMONARY FIBROSIS COMPRISING SAME AS ACTIVE INGREDIENT” (GIL MEDICAL CENTER, priority 2022, published 2025)

Tests used:
[1] = tested on: DHLF-IPF cells; assay: Transwell migration assay, DHLF-IPF; assay type: cell-based, human; conditions: inherent high migration, 24 hours, FIG. 5
Protocol: (§1) In accordance with the characteristics of myofibroblasts, in which the increased expression of proteins related to fibrogenesis leads to an increase of cell migration and invasion, migration and wound healing assays were conducted to examine the effects of the final selected Compound 1 and Compound 2 on cell migration using normal and diseased fibroblasts.
(§2) A 24-well culture plate was prepared with 500 μL of medium including FBS, and an 8 μm pore size insert was placed on top. Inside the insert, 300 μL of medium without FBS was added, and MRC-5 and DHLF-IPF cells were seeded at a density of 1×10^5 cells. […] After incubation, the medium inside the 8 μm pore polycarbonate membrane insert was carefully removed, washed with DPBS, and fixed in methanol for 5 minutes. The cells were then stained with Mayer's Haematoxylin for 8 minutes after washing twice with triple-distilled water. The stained cells were washed with DPBS, gently wiped with a cotton swab inside the insert, and the membrane was cut out and mounted on a slide. The migrated cells were counted under a microscope at 200× magnification.

[2] = tested on: FN, COL1A1, and α-SMA; assay: qRT-PCR of fibrosis-related genes in TGF-β1-induced DHLF-IPF cells; assay type: cell-based, human; conditions: 10 μM pretreatment 1 hour, TGF-β1 1 ng/ml 48 hours, FIG. 4c/4d
Protocol: MRC-5 and DHLF-IPF cells were each cultured in growth medium, and the medium was removed. […] The medium was then removed, and the cells were washed once with PBS. Intracellular total RNA was extracted from the cultured cells using TRIzol reagent (TaKaRa Bio Inc., Japan) for gene expression analysis. 1 mL of TRIzol reagent was added to lyse the cells and denature the tissue. The lysate was transferred to each 1.5 mL tube, and 200 μL of chloroform was added thereto, followed by vortexing for 20 seconds to ensure complete mixing. After incubating at room temperature for 15 minutes, the mixture was centrifuged at 14,000 rpm for 20 minutes to obtain the supernatant. After adding an equal volume of isopropyl alcohol, the tubes were inverted and incubated at room temperature for 10 minutes. The sample was centrifuged at 14,000 rpm for 15 minutes to obtain an RNA pellet, which was washed by centrifugation with 70% ethanol for use on RNA at 14,000 rpm for 5 minutes, and dried for 5 minutes. The dried RNA sample was added with 20 μL of distilled water treated with 0.1% diethyl pyrocarbonate (DEPC) to dissolve the pallet and the resultant was used as a sample for cDNA synthesis. 1 μL of the same was used to measure the RNA concentration and purity at O.D. 260/280 nm using a Nanodrop.
Single-stranded cDNA synthesis was performed by mixing 1 μg of the extracted total RNA with 1 μL of oligo-d(T) primer ([…]) and 10 mM dNTP (TaKaRa Bio Inc., Japan), reacting at 65° C. for 5 minutes, followed by rapid cooling. To this template, 4 μL of 5×RT buffer, 0.5 μL of RNA inhibitor, and 100 units of RTase (TaKaRa Bio Inc., Japan) were added, and the total volume was adjusted to 20 μL using DEPC-treated distilled water. […]
Each gene expression level was measured using real-time PCR. […] The specificity of the amplified product was confirmed through melting curve analysis, and the target genes were quantified and compared using GAPDH as a control gene.

[3] = tested on: MRC-5 cells; assay: Transwell migration assay, MRC-5; assay type: cell-based, human; conditions: MRC-5, TGF-β1 treatment, 24 hours, FIG. 5
Protocol: as §1, §2

[4] = tested on: bleomycin (BLM)-induced pulmonary fibrosis animal models; assay: Hydroxyproline quantification in lung tissue of BLM model; assay type: in vivo, C57BL/6N mice; conditions: BLM mice, compared to the BLM group
Protocol: (§3) Specifically, 7-week-old C57BL/6N mice were exposed to BLM (3-5 units/kg) via the airway. The compounds were administered orally at doses of 200 μg/kg and 500 μg/kg for Compound 1, and 100 μg/kg and 200 μg/kg for Compound 2, three times a week for three weeks starting the day after BLM exposure. Body weight gain was periodically measured during the experimental period, and lung weight was measured at the end of the experiment.
Specifically, homogenized lung tissue was placed in 1.5 mL tubes in similar amounts to prevent thawing, and 100 μL of 12 M hydrochloric acid was added for hydrolysis at 120° C. for 3 hours. After centrifugation at 10,000×g for 5 minutes, the supernatant was transferred to a new tube, and 10 μL of the sample was transferred to a 96-well plate and evaporated at 60° C. Subsequently, 100 μL of chloramine T reagent/oxidation buffer mixture was added to each well, followed by 100 μL of para-dimethylaminobenzaldehyde reagent, and reacted at 60° C. for 90 minutes. Absorbance was measured at 540 nm, and the content was determined using a standard calibration curve prepared in the same manner.

[5] = tested on: bleomycin (BLM)-induced pulmonary fibrosis animal models; assay: Body weight and lung weight in bleomycin-induced pulmonary fibrosis animal model; assay type: in vivo, C57BL/6N mice; conditions: BLM mice; for lung weight: end of the experiment, vs normal group and BLM group; for body weight gain during the experimental period: three times a week for three weeks
Protocol: The inhibitory effects of the finally selected Compound 1 and Compound 2 on pulmonary fibrosis were examined in bleomycin (BLM)-induced pulmonary fibrosis animal models.
as §3

[6] = tested on: FN, COL1A1, α-SMA, TGF-β, and CTGF; assay: qRT-PCR of fibrosis-related genes in lung tissue, BLM model; assay type: in vivo, C57BL/6N mice; conditions: BLM mice, compared to the BLM group
Protocol: as §3
Specifically, to extract RNA from lung tissue, approximately 100 mg of pulverized lung tissue was dispensed into 1.5 mL tubes, and total RNA was extracted using TRIzol reagent (TakaRa Bio Inc., Japan). After adding 1 mL of TRIzol reagent to denature the tissue, the samples were transferred to 1.5 ml tubes, and 200 μl of chloroform was added, followed by vortexing for 20 seconds to mix thoroughly. After reacting at room temperature for 15 minutes, the samples were centrifuged at 14,000 rpm for 20 minutes to obtain the supernatant. An equal volume of isopropyl alcohol was added, inverted, and allowed to stand at room temperature for 10 minutes. The samples were centrifuged at 14,000 rpm for 15 minutes to obtain RNA pellets, washed with 70% ethanol at 14,000 rpm for 5 minutes, and dried for 5 minutes. […] The RNA concentration and purity were measured at OD 260/280 nm using a Nanodrop.

Compound	cell migration (transwell) [1]	gene expression levels of FN, COL1A1, and α-SMA [2]	cell migration (transwell) [3]	hydroxyproline content in lung tissue ([4]; 100 μg/kg orally)	hydroxyproline content in lung tissue ([4]; 200 μg/kg orally)	lung weight ([5]; 100 μg/kg orally)	body weight gain during the experimental period ([5]; 100 μg/kg orally)	lung weight ([5]; 200 μg/kg orally)	body weight gain during the experimental period ([5]; 200 μg/kg orally)	expression of five genes (FN, COL1A1, α-SMA, TGF-β, and CTGF) in lung tissue [6]	body weight gain during the experimental period ([5]; 500 μg/kg orally)
C=CCOC(=O)C(CSC(=S)NCCCC[S+](C)[O-])NC(C)=O (centres unmarked) [Compound 2]	significantly inhibited in a dose-dependent manner	significantly reducing the expression levels compared to sulforaphane	significantly inhibited in a dose-dependent manner	significant reductions	significant reductions	similarly lower levels	steady increase in body weight, approaching levels similar to the normal group	similarly lower levels	steady increase in body weight, approaching levels similar to the normal group	significant reduction	–
CCOC(=O)C(CSC(=S)NCCCC[S+](C)[O-])NC(C)=O (centres unmarked) [Compound 1]	significantly inhibited in a dose-dependent manner	significantly reducing the expression levels compared to sulforaphane	significantly inhibited in a dose-dependent manner	–	reduced	–	–	–	steady increase	significant reduction	initially decreased and then gradually increased
